From ChEMBL document CHEMBL1133710 (J Med Chem, 2000) come the findings set out here.

The target in assay [1] is T1, D(3) dopamine receptor (Homo sapiens, UniProt P35462).
Assay [2] concerns the target T2, D(2) dopamine receptor (Bos taurus, UniProt P20288). Nature of the assay: Binding Affinity was tested on low Affinity Site of Bovine dopamine receptor D2. Tested for ability to displace the radioligand [3H]spiperone at the binding site.
Assay [3] deals with T2, D(2) dopamine receptor. Briefly: Binding Affinity was tested on high Affinity Site of Bovine Dopamine D2 Receptor. Tested for ability to displace the radioligand [3H]-Spiperone.
For assay [4], the target named is T2, D(2) dopamine receptor. Nature of the assay: Binding Affinity was determined for decoupling of the ternary complex of Compound to Bovine dopamine receptor D2. Tested for ability to displace the radioligand [3H]spiperone at the binding site.
Assay [5] addresses T3, D(4) dopamine receptor (Homo sapiens, UniProt P21917).
T3 sequence (P21917 whole entry): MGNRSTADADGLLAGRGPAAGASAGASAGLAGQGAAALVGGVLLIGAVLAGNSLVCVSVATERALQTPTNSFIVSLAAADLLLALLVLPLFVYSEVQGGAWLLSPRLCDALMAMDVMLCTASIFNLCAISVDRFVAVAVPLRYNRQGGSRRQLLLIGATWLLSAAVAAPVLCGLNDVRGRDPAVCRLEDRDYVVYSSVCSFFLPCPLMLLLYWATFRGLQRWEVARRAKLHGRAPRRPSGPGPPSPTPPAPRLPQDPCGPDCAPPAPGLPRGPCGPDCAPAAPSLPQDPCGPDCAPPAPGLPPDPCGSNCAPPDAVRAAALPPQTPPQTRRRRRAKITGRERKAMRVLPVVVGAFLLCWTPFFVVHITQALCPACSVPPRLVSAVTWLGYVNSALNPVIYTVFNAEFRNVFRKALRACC
Briefly: Binding Affinity was tested on low Affinity Site of Dopamine receptor D4.4.

For assay [6], the target named is T4, D(2) dopamine receptor (Homo sapiens, UniProt P14416). Nature of the assay: Binding Affinity of Compound of Dopamine receptor D2S.
Assay [7] concerns the target T4, D(2) dopamine receptor. Briefly: Dissociation constant of compound on one-site model Dopamine receptor D2S.
Assay [8] addresses T4, D(2) dopamine receptor. Nature of the assay: Binding Affinity was determined in the presence of 100 micro M Gpp(NH)p for decoupling of the ternary complex of Compound to Dopamine receptor D2L.
In assay [9] the target is T4, D(2) dopamine receptor.
Assay [10] deals with T5, D(1A) dopamine receptor (Bos taurus, UniProt Q95136). Briefly: Binding Affinity was tested on High Affinity Site of Bovine dopamine receptor D1. Tested for ability to displace the radioligand [3H]-SCH- 23390.
Assay [11] addresses T1, D(3) dopamine receptor. Briefly: Dissociation constant of compound on one-site model Dopamine receptor D3.
The target of assay [12] is T4, D(2) dopamine receptor. This is another data set of the same source.
Assay [13] addresses T2, D(2) dopamine receptor. Nature of the assay: Dissociation constant of compound on one-site model Bovine dopamine receptor D2. Tested for ability to displace the radioligand [3H]spiperone at the binding site.
The target of assay [14] is T4, D(2) dopamine receptor. Briefly: Binding Affinity was determined in the presence of 100 micro M Gpp(NH)p for decoupling of the ternary complex of Compound to Dopamine receptor D2S.
In assay [15] the target is T4, D(2) dopamine receptor. Nature of the assay: Binding Affinity was tested on low Affinity Site of Dopamine receptor D2L.
The target in assay [16] is T3, D(4) dopamine receptor. Nature of the assay: Dissociation constant of compound on one-site model Dopamine receptor D4.4.
Assay [17] addresses T1, D(3) dopamine receptor. Briefly: Binding Affinity was determined in the presence of 100 micro M Gpp(NH)p for decoupling of the ternary complex of Compound to Dopamine receptor D3.
Assay [18] addresses T2, D(2) dopamine receptor. Briefly: Binding Affinity was tested on high Affinity Site of Bovine dopamine receptor D2. Tested for ability to displace the radioligand [3H]pramipexole at the binding site.
Assay [19] has as its target T4, D(2) dopamine receptor. Nature of the assay: Dissociation constant of compound on one-site model Dopamine receptor D2L.
Assay [20] deals with T3, D(4) dopamine receptor. Briefly: Binding Affinity was tested on the high affinity site of Dopamine receptor D4.4.
In assay [21] the target is T1, D(3) dopamine receptor. Briefly: Binding Affinity was tested on low Affinity Site of Dopamine receptor D3.
Assay [22] addresses T5, D(1A) dopamine receptor. Briefly: Binding Affinity was tested on High Affinity Site of Bovine Dopamine D1 Receptor. Tested for ability to displace the radioligand [3H]-SCH- 23390.
Assay [23] has as its target T1, D(3) dopamine receptor. Nature of the assay: Dissociation constant of compound on one-site model Human Dopamine receptor D3.
Assay [24] deals with T4, D(2) dopamine receptor. Nature of the assay: Binding Affinity was tested on High Affinity Site of Dopamine receptor D2L.
In assay [25] the target is T4, D(2) dopamine receptor. Briefly: Binding Affinity was tested on High Affinity Site of Dopamine receptor D2S.
Assay [26] concerns the target T5, D(1A) dopamine receptor. Nature of the assay: Binding Affinity was tested for its ability to displace the radioligand [3H]-SCH- 23390 from High Affinity Site of Bovine dopamine receptor D1.
The target of assay [27] is T4, D(2) dopamine receptor. This is another data set of the same source.
In assay [28] the target is T1, D(3) dopamine receptor. This is another data set of the same source.
Assay [29] addresses T4, D(2) dopamine receptor. The source holds these as a separate data set.

Bounds are passed on as bounds.

T4 sequence (P14416 whole entry): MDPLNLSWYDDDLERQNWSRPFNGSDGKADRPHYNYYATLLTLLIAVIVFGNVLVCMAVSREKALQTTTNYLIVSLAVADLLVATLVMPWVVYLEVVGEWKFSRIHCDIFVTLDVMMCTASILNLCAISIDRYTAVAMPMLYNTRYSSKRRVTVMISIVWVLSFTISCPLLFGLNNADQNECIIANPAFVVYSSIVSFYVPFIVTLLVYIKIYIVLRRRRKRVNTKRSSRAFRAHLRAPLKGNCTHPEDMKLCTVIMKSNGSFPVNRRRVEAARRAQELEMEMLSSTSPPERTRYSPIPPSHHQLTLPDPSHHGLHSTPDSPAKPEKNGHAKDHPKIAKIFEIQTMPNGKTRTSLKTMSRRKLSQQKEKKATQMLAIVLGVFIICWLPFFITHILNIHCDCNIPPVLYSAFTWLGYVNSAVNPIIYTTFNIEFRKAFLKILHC
T1 sequence (P35462 whole entry): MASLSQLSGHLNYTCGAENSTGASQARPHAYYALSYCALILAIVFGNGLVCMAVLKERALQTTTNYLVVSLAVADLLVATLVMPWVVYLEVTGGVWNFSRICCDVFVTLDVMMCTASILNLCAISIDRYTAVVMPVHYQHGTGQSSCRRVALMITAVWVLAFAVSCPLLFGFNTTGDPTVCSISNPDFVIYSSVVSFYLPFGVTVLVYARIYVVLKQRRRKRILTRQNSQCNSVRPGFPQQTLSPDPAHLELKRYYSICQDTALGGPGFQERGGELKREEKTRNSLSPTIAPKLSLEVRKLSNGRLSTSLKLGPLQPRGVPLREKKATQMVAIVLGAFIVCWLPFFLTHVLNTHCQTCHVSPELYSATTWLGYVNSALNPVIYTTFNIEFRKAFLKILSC
T5 sequence (Q95136 whole entry): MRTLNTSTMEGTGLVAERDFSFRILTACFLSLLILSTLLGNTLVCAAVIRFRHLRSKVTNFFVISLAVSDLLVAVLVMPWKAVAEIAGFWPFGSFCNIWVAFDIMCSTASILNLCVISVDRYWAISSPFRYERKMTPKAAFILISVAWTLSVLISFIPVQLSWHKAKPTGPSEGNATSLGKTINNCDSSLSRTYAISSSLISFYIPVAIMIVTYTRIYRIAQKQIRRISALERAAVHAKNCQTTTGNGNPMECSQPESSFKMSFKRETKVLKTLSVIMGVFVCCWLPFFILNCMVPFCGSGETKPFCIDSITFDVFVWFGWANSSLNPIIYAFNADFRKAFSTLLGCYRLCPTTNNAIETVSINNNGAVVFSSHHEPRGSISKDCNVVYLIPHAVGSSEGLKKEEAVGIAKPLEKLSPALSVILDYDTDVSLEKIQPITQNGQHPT
T2 sequence (P20288 whole entry): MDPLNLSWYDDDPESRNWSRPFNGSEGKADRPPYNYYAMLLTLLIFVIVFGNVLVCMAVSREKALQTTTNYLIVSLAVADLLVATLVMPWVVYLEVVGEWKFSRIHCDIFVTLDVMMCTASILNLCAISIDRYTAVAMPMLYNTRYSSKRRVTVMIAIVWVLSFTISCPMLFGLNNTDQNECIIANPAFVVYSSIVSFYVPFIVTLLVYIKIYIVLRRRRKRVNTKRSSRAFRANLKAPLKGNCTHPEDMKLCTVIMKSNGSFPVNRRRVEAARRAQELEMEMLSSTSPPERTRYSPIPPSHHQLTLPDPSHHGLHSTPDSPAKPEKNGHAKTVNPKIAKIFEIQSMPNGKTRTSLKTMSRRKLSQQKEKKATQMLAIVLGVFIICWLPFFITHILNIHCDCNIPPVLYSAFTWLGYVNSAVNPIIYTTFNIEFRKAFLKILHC

By Ki is commonly meant the dissociation constant of the complex between target and ligand, obtained from inhibition or displacement. Turning to `CCCN(CCC)C1CC=C(C#C[Si](C)(C)C)CC1` (stereo unspecified), the Ki at D(3) dopamine receptor [1] is 0.047 µM; at D(2) dopamine receptor [2], 7.5 µM; on D(2) dopamine receptor [3] it was 0.15 µM; on D(2) dopamine receptor [4], 12 µM; on D(4) dopamine receptor [5] it was 3.8 µM; at D(2) dopamine receptor [6] it was greater than 20 µM. In addition, the Ki on D(2) dopamine receptor [7] was greater than 20 µM; on D(2) dopamine receptor [8] it was greater than 20 µM; on D(2) dopamine receptor [9], 0.97 µM; on D(1A) dopamine receptor [10] it was greater than 20 µM; on D(3) dopamine receptor [11], 0.82 µM; at D(2) dopamine receptor [12], 0.16 µM. The Ki on D(2) dopamine receptor [13] is 1.6 µM; on D(2) dopamine receptor [14], greater than 20 µM; on D(2) dopamine receptor [15], greater than 20 µM; on D(4) dopamine receptor [16] it was 0.64 µM; at D(3) dopamine receptor [17], 1.9 µM; on D(2) dopamine receptor [18], 0.03 µM. The figures for the Ki on D(2) dopamine receptor [19], on D(4) dopamine receptor [20] and at D(3) dopamine receptor [21] were greater than 20 µM, 0.16 µM and 1.6 µM, respectively.
As for `CCCN(CCC)C1CCC(=C(C#C[Si](C)(C)C)C#C[Si](C)(C)C)CC1` (stereo unspecified), the Ki at D(3) dopamine receptor [1] amounted to 2.8 µM; on D(1A) dopamine receptor [22] it was 3.9 µM; on D(2) dopamine receptor [9], 13 µM; at D(2) dopamine receptor [12], 11 µM; on D(4) dopamine receptor [20], 1.9 µM.
`C#CC1=CCC(N(CCC)CCC)CC1` (stereo unspecified): the Ki at D(3) dopamine receptor [1] stood at 0.0052 µM; on D(4) dopamine receptor [5], 0.38 µM; at D(2) dopamine receptor [6], 12 µM; on D(2) dopamine receptor [7] it was 2.9 µM; at D(2) dopamine receptor [8], 19 µM; at D(2) dopamine receptor [9], 0.25 µM. For the same compound, the Ki was determined as 0.27 µM at D(2) dopamine receptor [12]; 17 µM on D(2) dopamine receptor [14]; 0.35 µM at D(3) dopamine receptor [23]; 14 µM on D(2) dopamine receptor [15]; 0.17 µM at D(4) dopamine receptor [16]; 0.72 µM at D(3) dopamine receptor [17]. In addition, the Ki is 2.8 µM at D(2) dopamine receptor [19], 0.022 µM on D(4) dopamine receptor [20] and 0.59 µM at D(3) dopamine receptor [21].
With `C#CC(C#C)=C1CCC(N(CCC)CCC)CC1` (stereo unspecified), the Ki at D(3) dopamine receptor [1] is 4.4 µM; at D(1A) dopamine receptor [22], 16 µM; at D(2) dopamine receptor [9], greater than 20 µM; at D(2) dopamine receptor [12], 12 µM; on D(4) dopamine receptor [20] it was 3.9 µM.
As to `CCCN(CCC)C1CC=C(C#N)CC1` (stereo unspecified), the Ki on D(3) dopamine receptor [1] was 13 µM; at D(2) dopamine receptor [9] it was greater than 20 µM; at D(1A) dopamine receptor [10], greater than 20 µM; on D(2) dopamine receptor [12], greater than 20 µM; at D(4) dopamine receptor [20], greater than 20 µM.
`CCCN(CCC)C1CCC(=C(C#Cc2ccccc2)C#Cc2ccccc2)CC1` (stereo unspecified): the Ki turned out to be 1.8 µM at D(3) dopamine receptor [1]; 7.3 µM at D(2) dopamine receptor [9]; 2.2 µM on D(1A) dopamine receptor [10]; 5.2 µM at D(2) dopamine receptor [12]; 1.4 µM on D(4) dopamine receptor [20].
The corresponding values for `CCCN(CCC)C1CCC(=C(C#N)C#N)CC1` (stereo unspecified) are 1.6 µM, 15 µM, greater than 20 µM, greater than 20 µM and greater than 20 µM.
Take `CCCN(CCC)C1CC=C(C#Cc2ccccc2)CC1` (stereo unspecified): the Ki at D(3) dopamine receptor [1] is 3.5 µM; on D(2) dopamine receptor [24], 15 µM; at D(1A) dopamine receptor [10] it was greater than 20 µM; on D(4) dopamine receptor [20], 16 µM; on D(2) dopamine receptor [25], 15 µM.
`CCCN(CCC)C1CCC(=CC#N)CC1` (stereo unspecified): the Ki at D(1A) dopamine receptor [26] is greater than 20 µM; at D(2) dopamine receptor [27], greater than 20 µM; on D(3) dopamine receptor [28], 13 µM; on D(2) dopamine receptor [29] it was greater than 20 µM; on D(4) dopamine receptor [20], greater than 20 µM.
